Results reported in ChEMBL document CHEMBL1201862, “PubChem BioAssay data set” (2004).
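Step 1: Grow cells in 96-well plates. Step 2: Expose to compound for 48 hours at 5 concentrations. Step 3: Interpolate endpoints linearly; if unreached, use highest concentration. At the GI50, growth is halved.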 The source made the active and inactive calls. Cut-off read from the data, not from the text of the source: active = GI50 up to about 1.1 µM and inactive = higher.

Tests used:
Test in all cases: DTP human tumour cell line panel, 48 h
[1] = tested on: A549
[2] = tested on: EKVX
[3] = tested on: HCT-116
[4] = tested on: HOP-92
[5] = tested on: IGROV-1
[6] = tested on: MOLT-4
[7] = tested on: NCI-H460
[8] = tested on: NCI-H522
[9] = tested on: OVCAR-4
[10] = tested on: RXF 393
[11] = tested on: SF-295
[12] = tested on: SK-MEL-28
[13] = tested on: SN12C
[14] = tested on: SNB-78
[15] = tested on: TK-10
[16] = tested on: SR
[17] = tested on: SW-620

Measured: GI50

CC(C)(CN1CCCCC1)C(=O)CC(SCCS(=O)(=O)O)c1ccc(Br)cc1 (centres undefined)
active: [4] 0.578 µM
inactive: [1] 1.98 µM | [2] 2.92 µM | [3] 1.67 µM | [5] 1.97 µM | [6] 2.23 µM | [7] 2.14 µM | [8] 1.15 µM | [9] 2.03 µM | [10] 1.41 µM | [11] 5.12 µM | [12] 3.27 µM | [13] 1.34 µM | [14] 4.46 µM | [15] 2.56 µM

FC(F)(F)c1cccc(/C=N/C23CC4CC(CC(C4)C2)C3)c1
inactive: [1] > 100 µM | [2] > 100 µM | [3] > 100 µM | [5] > 100 µM | [6] > 100 µM | [7] > 100 µM | [9] > 100 µM | [10] > 100 µM | [11] > 100 µM | [12] > 100 µM | [13] > 100 µM | [14] > 100 µM | [16] > 100 µM | [17] > 100 µM | [15] > 100 µM

CCOC(=O)c1sc2c(sc(=O)n2-c2ccccc2)c1O
inactive: [1] > 100 µM | [2] > 100 µM | [3] > 100 µM | [4] > 100 µM | [5] > 100 µM | [6] > 100 µM | [7] > 100 µM | [8] > 100 µM | [9] > 100 µM | [10] > 100 µM | [11] > 100 µM | [12] > 100 µM | [13] > 100 µM | [14] > 100 µM | [16] 67.6 µM | [15] > 100 µM

OCC(O)C(OC1OC(CO)C(O)C(O)C1O)c1nn(-c2ccccc2)c2nc3cc(Cl)ccc3nc12 (centres undefined)
inactive: [2] > 100 µM | [3] > 100 µM | [6] > 100 µM | [7] > 100 µM | [8] > 100 µM | [9] > 100 µM | [10] > 100 µM | [11] > 100 µM | [12] > 100 µM | [13] > 100 µM | [14] > 100 µM | [16] > 100 µM | [15] > 100 µM

CC(=O)Nc1ccc(/C=C/C(=O)c2sc(C(N)=S)nc2C)cc1
inactive: [1] > 100 µM | [2] > 100 µM | [4] > 100 µM | [5] > 100 µM | [6] > 100 µM | [7] > 100 µM | [8] > 100 µM | [10] > 100 µM | [11] > 100 µM | [12] > 100 µM | [13] > 100 µM | [14] > 100 µM | [17] > 100 µM | [15] > 100 µM

CC(=O)O[C@H]1C(N(C)C(=O)c2ccccc2)CC[C@]2(C)C3CC[C@@]4(C)C(CC(O)[C@@H]4C(C)N(C)C)[C@@H]3CCC12 (some centres undefined)
inactive: [1] > 100 µM | [2] > 100 µM | [3] > 100 µM | [4] > 100 µM | [5] > 100 µM | [6] > 100 µM | [7] > 100 µM | [8] > 100 µM | [9] > 100 µM | [11] > 100 µM | [12] > 100 µM | [13] > 100 µM | [14] > 100 µM | [16] 76.9 µM | [17] > 100 µM | [15] > 100 µM

O=C1/C(=C/c2ccc3c(c2)OCO3)SC2C=Nc3ccccc3N12 (centres undefined)
inactive: [1] > 100 µM | [2] > 100 µM | [3] > 100 µM | [4] > 100 µM | [5] > 100 µM | [6] > 100 µM | [7] > 100 µM | [8] > 100 µM | [9] 63.4 µM | [10] > 100 µM | [11] > 100 µM | [12] > 100 µM | [13] > 100 µM | [14] 92.9 µM | [17] > 100 µM | [15] > 100 µM

NCCCOCC(=O)O
inactive: [1] > 100 µM | [2] > 100 µM | [3] > 100 µM | [4] > 100 µM | [5] > 100 µM | [6] > 100 µM | [9] > 100 µM | [10] > 100 µM | [11] > 100 µM | [12] > 100 µM | [13] > 100 µM | [14] > 100 µM | [16] > 100 µM | [17] > 100 µM | [15] > 100 µM

O=C(CCN1CCC(CCO)CC1)Nc1ccc2c(c1)C(=O)c1ccc(NC(=O)CCN3CCC(CCO)CC3)cc1C2=O
inactive: [1] 37.7 µM | [2] 32.5 µM | [3] 9.46 µM | [4] 29.8 µM | [5] 24.7 µM | [6] 4.13 µM | [7] 3.94 µM | [8] 11.8 µM | [9] 12.5 µM | [10] 30.1 µM | [11] > 100 µM | [12] 26.1 µM | [13] 16.5 µM | [14] 3.43 µM | [16] 7.69 µM | [17] 4.79 µM | [15] 24.7 µM

N#CCCn1c(S)nnc1CCC(=O)Nc1ccc(Cl)cc1Cl
inactive: [1] 81.3 µM | [3] > 100 µM | [4] > 100 µM | [5] > 100 µM | [6] > 100 µM | [7] > 100 µM | [8] > 100 µM | [9] > 100 µM | [10] > 100 µM | [11] > 100 µM | [12] > 100 µM | [13] > 100 µM | [14] > 100 µM | [16] 21.7 µM | [17] > 100 µM | [15] > 100 µM

CC(=O)OC1(C(C)=O)CC2(c3ccccc3)OC1(c1ccccc1)c1ccccc12 (centres undefined)
inactive: [1] 25.3 µM | [2] 5.26 µM | [3] 7.78 µM | [4] 17.7 µM | [5] 4.91 µM | [6] 5.81 µM | [7] 10.4 µM | [8] 4.26 µM | [10] 13 µM | [11] 33.3 µM | [12] 31.6 µM | [13] 35.6 µM | [14] 31.7 µM | [16] 6.56 µM | [17] 16.7 µM | [15] 17.6 µM

OCCCNc1ccnc2cc(Cl)ccc12
inactive: [1] > 100 µM | [2] > 100 µM | [3] 57.9 µM | [4] > 100 µM | [5] > 100 µM | [6] > 100 µM | [7] > 100 µM | [8] > 100 µM | [9] > 100 µM | [10] > 100 µM | [11] > 100 µM | [12] > 100 µM | [13] > 100 µM | [14] > 100 µM | [16] > 100 µM | [17] > 100 µM | [15] 21 µM

OCC(O)COc1c(Cl)ccc(Cl)c1Cl (centres undefined)
inactive: [1] > 100 µM | [2] > 100 µM | [3] > 100 µM | [4] > 100 µM | [5] > 100 µM | [6] > 100 µM | [7] > 100 µM | [8] > 100 µM | [9] > 100 µM | [10] > 100 µM | [11] > 100 µM | [12] > 100 µM | [13] > 100 µM | [14] > 100 µM | [16] > 100 µM | [17] > 100 µM | [15] > 100 µM

CN1C(=O)N(C)C2(O)c3ccccc3C(=O)C12O (centres undefined)
inactive: [1] > 100 µM | [2] > 100 µM | [3] > 100 µM | [5] > 100 µM | [6] > 100 µM | [7] > 100 µM | [8] > 100 µM | [9] > 100 µM | [10] > 100 µM | [11] > 100 µM | [12] > 100 µM | [13] > 100 µM | [14] > 100 µM | [16] > 100 µM | [17] > 100 µM | [15] > 100 µM

Cc1ccc(-c2cc(-c3ccco3)c(C#N)c(O)n2)cc1
inactive: [1] > 100 µM | [2] > 100 µM | [3] > 100 µM | [4] > 100 µM | [5] > 100 µM | [6] > 100 µM | [7] > 100 µM | [8] > 100 µM | [9] 45.1 µM | [10] 95.1 µM | [11] > 100 µM | [12] > 100 µM | [13] > 100 µM | [14] > 100 µM | [17] > 100 µM | [15] > 100 µM

O=C1/C(=C(\Nc2ccccc2)c2ccccc2)C=NN1c1ccccc1
inactive: [1] > 100 µM | [2] > 100 µM | [5] > 100 µM | [6] 29.3 µM | [7] 96.4 µM | [8] > 100 µM | [9] 76.9 µM | [10] 22.1 µM | [11] > 100 µM | [12] > 100 µM | [13] > 100 µM | [14] > 100 µM | [17] > 100 µM | [15] > 100 µM

COC(=O)C(=O)C(C(=O)C=C(C)C)C(=O)C(=O)Nc1nc2ccc([N+](=O)[O-])cc2s1 (centres undefined)
inactive: [1] 78.7 µM | [2] 33.9 µM | [3] 50 µM | [4] 27.3 µM | [5] 24.9 µM | [6] 36.4 µM | [7] 72.8 µM | [8] 23.7 µM | [9] 52.5 µM | [10] 12.9 µM | [12] 63.2 µM | [13] 37.9 µM | [14] 58.2 µM | [17] > 100 µM | [15] 38.5 µM
